Four molecules from patent publication US20070134660A1, “Methods for identifying modulators of kinesin activity” (ROSETTA INPHARMATICS LLC, priority 2003, published 2007) can be followed below.

pIC50: −log10 of the molar value.

One may read the EC50 as the midpoint of the concentration-response curve. A word on the inhibition: it is the change of the read-out against control, counted positive when it falls. In general, pIC50 refers to −log10 of the IC50, conventionally taken in molar units.

In one assay the test system is A2780 cells. Briefly: alamarBlue cell growth assay, candidate KIF14 modulators in A2780 cells. In kind it is cell-based. The following applies: Homo sapiens, 48 hour incubation; for EC50: read-out: EC50 (nM), Growth Inhibition in A2780 Cells; for inhibition at 0.0137 µM: [Compound] 13.7 nM; for inhibition at 0.0141 µM: [Compound] 14.1 nM; for inhibition at 0.123 µM: [Compound] 123 nM; for inhibition at 0.37 µM: [Compound] 370 nM; for inhibition at 1.111 µM: [Compound] 1111 nM; for inhibition at 3.333 µM: [Compound] 3333 nM; for inhibition at 10 µM: [Compound] 10000 nM. On the procedure:
alamarBlue™ Assay for Cell Growth: The alamarBlue™ assay is a measure of cellular respiration and is used as a measure of live cell number. The internal environment of the proliferating cell is more reduced than that of non-proliferating cells. Specifically, the ratios of NADPH/NADP, FADH/FAD, FMNH/FMN, and NADH/NAF increase during proliferation. alamarBlue™ can be reduced by these metabolic intermediates and, therefore, can be used to monitor cell proliferation.
A2780 cells were plated at a density of 4000/cells per well in RPMI1640 (containing 10% FBS, 1% Pen/Strep, 0.01 mg/ml insulin) in a 96-well plate (Costar, Cat. No. 3606) 16 hours prior to treatment. A compound dilution plate was prepared from a 10 mM stock solution using a 3-fold serial dilution series in DMSO. A 1.2 microliter aliquot of each concentration was transferred into 0.6 ml of medium. A 100 microliter aliquot of each concentration was added to the appropriate wells already containing 100 microliters of compound-free medium. After a 48 hour incubation at 37° C., 20 microliters of alamarBlue™ was added to each well (10% vol/vol). After an additional 6 hour incubation at 37° C., the plates were read on a spectrofluorimeter SpectroMax Gemini (excitation 544 nm, emission 590 nm). The background value (averaged from wells with no cells) was subtracted from each reading.
(In general: The colour change of resazurin is a common sign of viable cells or microbes.)

The target of assay [1] is T1, KIF14 V342-K720 MD protein (SEQ ID NO:4) (Homo sapiens, UniProt Q15058).
T1 construct: made in house; host or cells: E. coli BL21 (DE3)
T1 sequence (Q15058 with tags, fused parts or gaps): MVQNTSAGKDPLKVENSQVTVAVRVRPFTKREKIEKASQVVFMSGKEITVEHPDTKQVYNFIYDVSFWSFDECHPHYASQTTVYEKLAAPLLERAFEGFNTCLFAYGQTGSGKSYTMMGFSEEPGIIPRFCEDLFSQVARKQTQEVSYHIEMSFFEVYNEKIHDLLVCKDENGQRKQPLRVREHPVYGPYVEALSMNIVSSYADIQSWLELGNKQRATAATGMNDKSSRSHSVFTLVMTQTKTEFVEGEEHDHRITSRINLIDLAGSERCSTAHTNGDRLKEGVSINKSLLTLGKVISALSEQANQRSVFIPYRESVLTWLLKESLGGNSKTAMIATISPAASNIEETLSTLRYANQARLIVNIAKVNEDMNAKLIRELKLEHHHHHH
Briefly: KIF14 motor domain microtubule-dependent ATPase assay (Quinaldine Red). It counts as biochemical. The following applies: n = 2. The method, then: KIF14 Motor Domain Assay: KIF14 MDs were assayed for microtubule (MT)-dependent ATP hydrolysis by measuring the rate of inorganic phosphate (Pi) release using the dye Quinaldine Red, which absorbs light of 540 nm when bound to Pi. Assays (50 microliters) contained 50 mM K-PIPES pH 6.9 (which contains 90 mM KCl), 1 mM EGTA pH 8.0, 1 mM DTT, 100 micrograms/mL BSA, 2 mM MgCl2, 1 mM Na-ATP pH 7.0, 0.25-5 micromolar MT (which contain equimolar amounts of Taxol®), and 20-200 nM KIF14 MD enzyme. Reactions were initiated by the addition of enzyme and allowed to proceed at room temperature until they were quenched at regular time intervals by the addition of 50 microliters of 1.8 M KCl, 50 mM EDTA. To this was added 150 microliters of the Quinaldine Red dye solution (0.07 mg/mL quinaldine red, 0.09% polyvinyl alcohol, 4.1 mM ammonium molybdate, and 380 mM H2SO4). After 10 min incubation at room temperature, absorbance at 540 nm was read on a Molecular Devices Microtiter plate reader. Rates were calculated using the linear (steady-state) phase of the reaction.
Suitability of K14 Motor Domains for high-throughput screening: The motor domain assay was as described above, using 50 mM MES pH 6.0, 20 mM added KCl, 0.5 micromolar MTs, a temperature of 37° C., and varying enzyme concentration from 0 to 10 nM. The signal to background ratio, calculated as the amount of Pi formed after a 90 minute incubation in the presence of enzyme relative to in the absence of enzyme, was determined using different concentrations of the V342-K720 motor domain (SEQ ID NO:4), and is shown in Table 9. A high enough signal over background was obtained at low enzyme concentrations to allow high-through-put screening (HTS). Moreover, the V342-K720 motor domain (SEQ ID NO:4) was stable in the reaction for at least 90 minutes.
Screen for KIF14 Modulators: The ATPase assay described in EXAMPLE 7, as optimized in EXAMPLE 8, was used to screen for compounds that modulated the activity of the KIF14 V342-K720 MD protein (SEQ ID NO:4).

The next assay deals with MCAK (SEQ ID NO:22) (Homo sapiens, UniProt Q99661). Briefly: MCAK motor domain ATPase assay. The following applies: read-out: uKHC, nKHC, CENP-E, MKLP-1, KIF1B, MCAK ATPase IC50. It counts as biochemical.
For another assay, the target named is T2, uKHC (SEQ ID NO:17) (Homo sapiens, UniProt P33176).
T2 construct: His6 (printed only as 'H')
T2 sequence (P33176 with tags, fused parts or gaps): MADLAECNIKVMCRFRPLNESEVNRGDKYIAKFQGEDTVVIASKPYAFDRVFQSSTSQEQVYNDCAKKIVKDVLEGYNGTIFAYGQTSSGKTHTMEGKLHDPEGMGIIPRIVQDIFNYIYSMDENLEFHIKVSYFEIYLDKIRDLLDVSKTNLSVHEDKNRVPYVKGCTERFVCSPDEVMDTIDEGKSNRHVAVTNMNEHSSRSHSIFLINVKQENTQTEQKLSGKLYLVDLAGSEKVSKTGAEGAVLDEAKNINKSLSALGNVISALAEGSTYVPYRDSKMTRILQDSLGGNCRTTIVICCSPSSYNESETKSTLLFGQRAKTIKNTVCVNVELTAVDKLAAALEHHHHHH
In words: uKHC motor domain ATPase assay. In kind it is biochemical. As to conditions: read-out: uKHC, nKHC, CENP-E, MKLP-1, KIF1B, MCAK ATPase IC50.

MCAK (SEQ ID NO:22), sequence (Q99661 183-646): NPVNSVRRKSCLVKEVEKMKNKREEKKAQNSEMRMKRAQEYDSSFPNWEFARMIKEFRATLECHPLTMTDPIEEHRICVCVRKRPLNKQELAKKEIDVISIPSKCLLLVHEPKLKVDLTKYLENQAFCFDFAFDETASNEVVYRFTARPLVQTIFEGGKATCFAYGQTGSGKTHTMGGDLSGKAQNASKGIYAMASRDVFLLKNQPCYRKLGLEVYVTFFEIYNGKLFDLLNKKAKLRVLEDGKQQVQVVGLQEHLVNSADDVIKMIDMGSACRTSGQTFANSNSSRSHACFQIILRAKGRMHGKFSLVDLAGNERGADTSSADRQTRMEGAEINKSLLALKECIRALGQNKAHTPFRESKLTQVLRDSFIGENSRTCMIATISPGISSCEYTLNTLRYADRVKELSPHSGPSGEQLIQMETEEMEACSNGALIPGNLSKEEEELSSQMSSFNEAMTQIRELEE

As to `NC(=S)N/N=C\c1ccc(-c2ccccc2)cc1` [compound 1, 1,1′-biphenyl-4-carbaldehyde thiosemicarbazone], in the assay on A2780 cells, the EC50 was more than 10000 nM, the inhibition at 0.0137 µM was -4.5%, the inhibition at 0.0141 µM was determined as 11.6% and the inhibition at 0.123 µM is -10.3%. In the assay on A2780 cells, the inhibition at 0.37 µM was 19%, the inhibition at 1.111 µM came to 18.7%, the inhibition at 3.333 µM turned out to be 23.6% and the inhibition at 10 µM was determined as 31.3%. Also, the pIC50 in assay [1] was 6.74. Besides, on MCAK (SEQ ID NO:22), the pIC50 was less than 4.40. Besides, the pIC50 on uKHC (SEQ ID NO:17) is less than 4.40.
As to `CC(C)c1ccc(/C=N/NC(N)=S)cc1` [compound 2, 4-isopropylbenzaldehyde thiosemicarbazone], the negative-log IC50 (pIC50) is 6.05 in assay [1], less than 4.40 on MCAK (SEQ ID NO:22) and less than 4.40 on uKHC (SEQ ID NO:17).
Turning to `NC(=S)N/N=C/c1ccc(C2CCCCC2)cc1` [compound 3, 4-cyclohexylbenzaldehyde thiosemicarbazone], in the assay on A2780 cells, the EC50 worked out at 3600 nM, the inhibition at 0.0137 µM is -5.3%, the inhibition at 0.0141 µM is -8.1% and the inhibition at 0.123 µM is -10.4%. Further, in the assay with A2780 cells, the inhibition at 0.37 µM turned out to be 7.8%, the inhibition at 1.111 µM amounted to 6%, the inhibition at 3.333 µM was determined as 39.8% and the inhibition at 10 µM was determined as 107%. The pIC50 in assay [1] is 7.12. Moreover, the pIC50 on MCAK (SEQ ID NO:22) is less than 4.40. The pIC50 on uKHC (SEQ ID NO:17) was less than 4.40.
Turning to `CC(C)c1ccc(/C=N/NC(N)=S)cc1[N+](=O)[O-]` [compound 4, 4-isopropyl-3-nitrobenzaldehyde thiosemicarbazone], in the assay on A2780 cells, the EC50 was determined as 7980 nM, the inhibition at 0.0137 µM is -7%, the inhibition at 0.0141 µM was -4% and the inhibition at 0.123 µM is -9.2%. Besides, in the assay on A2780 cells, the inhibition at 0.37 µM turned out to be 4.4%, the inhibition at 1.111 µM was found to be 7.5%, the inhibition at 3.333 µM came to 25% and the inhibition at 10 µM was determined as 61.8%. For the same molecule, in assay [1], the pIC50 was 7.27. Further, at MCAK (SEQ ID NO:22), the pIC50 is less than 4.40. Also, the pIC50 at uKHC (SEQ ID NO:17) was less than 4.40.
